According to patent publication US7915291B2, “Hepatitis C virus inhibitors” (Bristol-Myers Squibb Company, priority 2002, dated 2011):
Read-outs that look alike come from different tables or passages of the source.

How the values were obtained:
[1] = biological target: HCV NS3/4A protease complex, BMS strain (UniProt P27958, C1454S/C1711G, species not given/STRAIN_BMS); test: Recombinant HCV NS3/4A protease complex FRET peptide assay (BMS strain); type: biochemical, HCV genotype 1a; details: NS3/4A BMS strain; read-out: IC50 range
In short: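 Recombinant BMS-strain NS3/4A (His-tagged NS4A with three-lysine tail, E. coli) at 2-3 nM preincubated 1 min with compound, then 2 μM ester-linked NS4A/NS4B-based FRET peptide added. Fluorescence followed in real time ~15 min at 25° C. Percent inhibition from slope of linear fluorescence change versus no-compound control.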

[2] = system: HCV replicon in Huh7 cells; test: HCV replicon cell-based assay; parameters: species or system HCV strain 1B; details: HCV replicon, Huh7 cells, read-out: EC50 range

Row | Structure (SMILES) | IC50 [1] [nM] | EC50 ([2]; Hepatitis C virus, Huh-7) [nM] | EC50 [2] [nM]
1 | C=CC1C[C@]1(NC(=O)[C@@H]1C[C@@H](Oc2nc3ccoc3c3ccccc23)CN1C(=O)[C@@H](NC(=O)OC(C)(C)C)C(C)(C)C)C(=O)NS(=O)(=O)C1CC1 (stereo partly drawn) [Compound 220, BOCNH-P3(L-t-BuGly)-P2[(4R)-(1-oxa-4-aza-cyclopenta[α]naphthalen-5-yloxy)-S-proline]-P1(1R,2S VinylAcca)-CONHSO2Cyclopropane] | < 100 | < 100 | 
2 | C=CC1C[C@]1(NC(=O)[C@@H]1C[C@@H](Oc2nc(Br)c(OC)c3ccccc23)CN1C(=O)[C@@H](NC(=O)OC(C)(C)C)C(C)(C)C)C(=O)NS(=O)(=O)C1CC1 (stereo partly drawn) [Compound 223] | < 100 | < 100 | 
3 | C=CC1CC1(NC(=O)C1CC(Oc2nc(Br)c(O)c3ccccc23)CN1C(=O)C(NC(=O)OC(C)(C)C)C(C)(C)C)C(=O)NS(=O)(=O)C1CC1 (stereo not drawn) [Compound 224] | < 100 | 100 to 1000 | 
4 | C=CC1CC1(NC(=O)C1CC(Oc2nc(Br)c(OCOCC[Si](C)(C)C)c3ccccc23)CN1C(=O)C(NC(=O)OC(C)(C)C)C(C)(C)C)C(=O)NS(=O)(=O)C1CC1 (stereo not drawn) [Compound 225] | < 100 | 100 to 1000 | 
5 | C=CC1C[C@]1(NC(=O)[C@@H]1C[C@@H](Oc2nc3c(c4ccccc24)OCOC3)CN1C(=O)[C@@H](NC(=O)OC(C)(C)C)C(C)(C)C)C(=O)NS(=O)(=O)C1CC1 (stereo partly drawn) [Compound 227, BOCNH-P3(L-t-BuGly)-P2[(4R)-(1,3-oxazino[5,6-c]isoquinoline-6-oxo)-S-proline]-P1(1R,2S VinylAcca)-CONHSO2Cyclopropane] | < 100 | < 100 | 
6 | C=C[C@@H]1C[C@]1(NC(=O)[C@@H]1C[C@@H](Oc2nc(-c3ccoc3)c(OC)c3ccccc23)CN1C(=O)[C@@H](NC(=O)OC(C)(C)C)C(C)(C)C)C(=O)NS(=O)(=O)C1CC1 [Compound 229, BOCNH-P3(L-t-BuGly)-P2[(4R)-(3-furan-3-yl-4methoxy -isoquinolin-1-oxo)-S-proline]-P1(1R,2S VinylAcca)-CONHSO2Cyclopropane] | < 100 |  | < 100
7 | C=C[C@@H]1C[C@]1(NC(=O)[C@@H]1C[C@@H](Oc2nc(-c3ccco3)c(OC)c3ccccc23)CN1C(=O)[C@@H](NC(=O)OC(C)(C)C)C(C)(C)C)C(=O)NS(=O)(=O)C1CC1 [Compound 230, BOCNH-P3(L-t-BuGly)-P2[(4R)-(3-furan-2-yl-4-methoxy -isoquinolin-1-oxo)-S-proline]-P1(1R,2S VinylAcca)-CONHSO2Cyclopropane] | 100 to 1000 |  | 100 to 1000
8 | C=CC1C[C@]1(NC(=O)[C@@H]1C[C@@H](Oc2nc(-c3nccs3)c(OC)c3ccccc23)CN1C(=O)[C@@H](NC(=O)OC(C)(C)C)C(C)(C)C)C(=O)NS(=O)(=O)C1CC1 (stereo partly drawn) [Compound 232, BOCNH-P3(L-t-BuGly)-P2[(4R)-(4-methoxy-3-thiazol-2-yl -isoquinolin-1-oxo)-S-proline]-P1(1R,2S VinylAcca)-CONHSO2Cyclopropane] | < 100 | < 100 | 
9 | C=CC1C[C@]1(NC(=O)[C@@H]1C[C@@H](Oc2nccc3occc23)CN1C(=O)[C@@H](NC(=O)OC(C)(C)C)C(C)(C)C)C(=O)NS(=O)(=O)C1CC1 (stereo partly drawn) [Compound 233] | 100 to 1000 | 100 to 1000 | 
10 | C=CC1C[C@]1(NC(=O)[C@@H]1C[C@@H](Oc2nccc3sccc23)CN1C(=O)[C@@H](NC(=O)OC(C)(C)C)C(C)(C)C)C(=O)NS(=O)(=O)C1CC1 (stereo partly drawn) [Compound 235] | < 100 | 100 to 1000 | 
11 | C=CC1C[C@]1(NC(=O)[C@@H]1C[C@@H](Oc2cnc3ccccc3n2)CN1C(=O)[C@@H](NC(=O)OC(C)(C)C)C(C)(C)C)C(=O)NS(=O)(=O)C1CC1 (stereo partly drawn) [Compound 237, BOCNH-P3(L-t-BuGly)-P2[(4R)-(quinoxaline-2-oxo)-S-proline]-P1(1R,2S VinylAcca)-CONHSO2Cyclopropane] | < 100 | 100 to 1000 | 
12 | C=CC1C[C@]1(NC(=O)[C@@H]1C[C@@H](Oc2cc(C(F)(F)F)nc3ccc(F)cc23)CN1C(=O)[C@@H](NC(=O)OC(C)(C)C)C(C)(C)C)C(=O)NS(=O)(=O)C1CC1 (stereo partly drawn) [Compound 238, BOCNH-P3(L-t-BuGly)-P2[(4R)-(2-trifluoro-6-fluoroquinoline-4-oxo)-S-proline]-P1(1R,2S VinylAcca)-CONHSO2Cyclopropane] | < 100 | 100 to 1000 | 
13 | C=CC1C[C@]1(NC(=O)[C@@H]1C[C@@H](Oc2ccnc3ccc(F)cc23)CN1C(=O)[C@@H](NC(=O)OC(C)(C)C)C(C)(C)C)C(=O)NS(=O)(=O)C1CC1 (stereo partly drawn) [Compound 239, BOCNH-P3(L-t-BuGly)-P2[(4R)-(6-fluoroquinoline-4-oxo)-S -proline]-P1(1R,2S VinylAcca)-CONHSO2Cyclopropane] | < 100 | < 100 | 
14 | C=CC1C[C@]1(NC(=O)[C@@H]1C[C@@H](Oc2ccc3nccc(Cl)c3c2)CN1C(=O)[C@@H](NC(=O)OC(C)(C)C)C(C)(C)C)C(=O)NS(=O)(=O)C1CC1 (stereo partly drawn) [Compound 240, BOCNH-P3(L-t-BuGly)-P2[(4R)-(4-chloroquinoline-6-oxo)-S -proline]-P1(1R,2S VinylAcca)-CONHSO2Cyclopropane] | < 100 | < 100 | 
15 | C=CC1C[C@]1(NC(=O)[C@@H]1C[C@@H](Oc2ccnc3c(F)cccc23)CN1C(=O)[C@@H](NC(=O)OC(C)(C)C)C(C)(C)C)C(=O)NS(=O)(=O)C1CC1 (stereo partly drawn) [Compound 241, BOCNH-P3(L-t-BuGly)-P2[(4R)-(8-fluoroquinoline-4-oxo)-S -proline]-P1(1R,2S VinylAcca)-CONHSO2Cyclopropane] | < 100 | < 100 | 
16 | C=CC1C[C@]1(NC(=O)[C@@H]1C[C@@H](Oc2cccc3c(Cl)ccnc23)CN1C(=O)[C@@H](NC(=O)OC(C)(C)C)C(C)(C)C)C(=O)NS(=O)(=O)C1CC1 (stereo partly drawn) [Compound 242, BOCNH-P3(L-t-BuGly)-P2[(4R)-(4-chloroquinoline-8-oxo)-S -proline]-P1(1R,2S VinylAcca)-CONHSO2Cyclopropane] | < 100 | 1000 to 10000 | 
17 | C=CC1C[C@]1(NC(=O)[C@@H]1C[C@@H](Oc2nc3ccccc3nc2O)CN1C(=O)[C@@H](NC(=O)OC(C)(C)C)C(C)(C)C)C(=O)NS(=O)(=O)C1CC1 (stereo partly drawn) [Compound 243, BOCNH-P3(L-t-BuGly)-P2[(4R)-(3-hydroxyquinoxaline-2-oxo)-S -proline]-P1(1R,2S VinylAcca)-CONHSO2Cyclopropane] | 100 to 1000 | 10000 to 100000 | 
18 | C=CC1C[C@]1(NC(=O)[C@@H]1C[C@@H](Oc2nccc3cc(C(=O)N(C)C)ccc23)CN1C(=O)[C@@H](NC(=O)OC(C)(C)C)C(C)(C)C)C(=O)NS(=O)(=O)C1CC1 (stereo partly drawn) [Compound 244, BOCNH-P3(L-t-BuGly)-P2-[(4R) -(6-carboxylic acid dimethylamideisoquinoline-1-oxo)-S-proline]-P1(1R,2S VinylAcca) -CONHSO2Cyclopropane] | < 100 | 10000 to 100000 | 
19 | C=C[C@@H]1C[C@]1(NC(=O)[C@@H]1C[C@@H](Oc2ncc(C)c3ccccc23)CN1C(=O)[C@@H](NC(=O)OC(C)(C)C)C(C)(C)C)C(=O)NS(=O)(=O)C1CC1 [Compound 250] | < 100 | < 100 | 
20 | C=C[C@@H]1C[C@]1(NC(=O)[C@@H]1C[C@@H](Oc2ncc(OC)c3ccccc23)CN1C(=O)[C@@H](NC(=O)OC(C)(C)C)C(C)(C)C)C(=O)NS(=O)(=O)C1CC1 [Compound 251] | < 100 | < 100 | 
21 | C=C[C@@H]1C[C@]1(NC(=O)[C@@H]1C[C@@H](Oc2nccc3c(C)cccc23)CN1C(=O)[C@@H](NC(=O)OC(C)(C)C)C(C)(C)C)C(=O)NS(=O)(=O)C1CC1 [Compound 252] | < 100 | < 100 | 
22 | C=C[C@@H]1C[C@]1(NC(=O)[C@@H]1C[C@@H](Oc2nccc3c(OC)cccc23)CN1C(=O)[C@@H](NC(=O)OC(C)(C)C)C(C)(C)C)C(=O)NS(=O)(=O)C1CC1 [Compound 253] | < 100 | < 100 | 
23 | C=C[C@@H]1C[C@]1(NC(=O)[C@@H]1C[C@@H](Oc2nccc3c(Cl)cccc23)CN1C(=O)[C@@H](NC(=O)OC(C)(C)C)C(C)(C)C)C(=O)NS(=O)(=O)C1CC1 [Compound 254] | < 100 | < 100 | 
24 | C=C[C@@H]1C[C@]1(NC(=O)[C@@H]1C[C@@H](Oc2nccc3c(F)cccc23)CN1C(=O)[C@@H](NC(=O)OC(C)(C)C)C(C)(C)C)C(=O)NS(=O)(=O)C1CC1 [Compound 255] | < 100 | 100 to 1000 | 
25 | C=C[C@@H]1C[C@]1(NC(=O)[C@@H]1C[C@@H](Oc2nccc3ccc(F)cc23)CN1C(=O)[C@@H](NC(=O)OC(C)(C)C)C(C)(C)C)C(=O)NS(=O)(=O)C1CC1 [Compound 257] | < 100 | < 100 | 
26 | C=C[C@@H]1C[C@]1(NC(=O)[C@@H]1C[C@@H](Oc2nccc3ccc(Cl)cc23)CN1C(=O)[C@@H](NC(=O)OC(C)(C)C)C(C)(C)C)C(=O)NS(=O)(=O)C1CC1 [Compound 258] | < 100 | < 100 | 
27 | C=C[C@@H]1C[C@]1(NC(=O)[C@@H]1C[C@@H](Oc2nccc3ccc(C)cc23)CN1C(=O)[C@@H](NC(=O)OC(C)(C)C)C(C)(C)C)C(=O)NS(=O)(=O)C1CC1 [Compound 259] | < 100 | < 100 | 
28 | C=C[C@@H]1C[C@]1(NC(=O)[C@@H]1C[C@@H](Oc2nccc3ccc(OC)cc23)CN1C(=O)[C@@H](NC(=O)OC(C)(C)C)C(C)(C)C)C(=O)NS(=O)(=O)C1CC1 [Compound 260] | < 100 | 100 to 1000 | 
29 | C=C[C@@H]1C[C@]1(NC(=O)[C@@H]1C[C@@H](Oc2nccc3cc(OC)c(F)cc23)CN1C(=O)[C@@H](NC(=O)OC(C)(C)C)C(C)(C)C)C(=O)NS(=O)(=O)C1CC1 [Compound 261] | < 100 | < 100 | 
30 | C=C[C@@H]1C[C@]1(NC(=O)[C@@H]1C[C@@H](Oc2cc3c(Cl)nccc3cc2OC)CN1C(=O)[C@@H](NC(=O)OC(C)(C)C)C(C)(C)C)C(=O)NS(=O)(=O)C1CC1 [Compound 262] | < 100 | < 100 | 
